Source: US9409893B2, “Heteroaryl derivatives and uses thereof” (Jacobus Pharmaceutical Company, Inc., priority 2012, dated 2016)

Assay: Solubility in hERG test solution (HB-PS + 0.3% DMSO)
Type: physicochemical
Details: 30 μM nominal concentration
Experimental: All chemicals used in solution preparation were purchased from Sigma-Aldrich (St. Louis, Mo.) unless otherwise noted and were of ACS reagent grade purity or higher. Stock solutions of the test article and the positive control were prepared in dimethyl sulfoxide (DMSO) and stored frozen. Test article and positive control concentrations were prepared fresh daily by diluting stock solutions into a HEPES-buffered physiological saline (HB-PS) solution (composition in mM): NaCl, 137; KCl, 4.0; CaCl2, 1.8; MgCl2, 1; HEPES, 10; Glucose, 10; pH adjusted to 7.4 with NaOH (prepared weekly and refrigerated until use).
Experiments were performed as outlined in the section entitled Experimental Procedures. Concentrations were selected to evaluate the concentration-response relationship of each test article based on the initial results or the solubility limits in vehicle. Each concentration was tested in at least three cells (n≧3).
Each test article at 10 μM was applied to at least 3 cells (n≧3).

Row | SMILES | Solubility in hERG test solution
1 | CC(C)(C)NCc1cc(C(C)(C)C)cc(-c2cnc(C(F)(F)F)nc2)c1O.Cl [Example 33, 4-(tert-Butyl)-2-((tert-butylamino)methyl)-6-(2-(trifluoromethyl)pyrimidin-5-yl)phenol hydrochloride] | not in solution
2 | CC(C)(C)NCc1cc(C(C)(C)C)cc(-c2cnc(C(F)(F)F)c(F)c2)c1O.Cl [Example 34, 4-(tert-Butyl)-2-((tert-butylamino)methyl)-6-(5-fluoro-6-(trifluoromethyl)pyridin-3-yl)phenol hydrochloride] | not in solution
